Results taken from patent US11286242B2 (priority 2018, dated 2022).

System: Phakopsora pachyrhizi
Test: Phakopsora pachyrhizi test in soybean, preventive spray
Format: in vivo
Conditions: preventive spray on soybean plants, inoculated one day after treatment, greenhouse 25° C., 90% relative humidity, read-out: control (efficacy, disease severity rating) compared to the untreated check
Description: Example 8: Phakopsora pachyrhizi Test in Soybean
Compounds were dissolved in 2% DMSO/Acetone & then mixed with water to the calibrated spray volume of 50 mL and poured into the spray bottles for further applications.
To test the preventive activity of compounds, healthy young soybean plants raised in the greenhouse were sprayed with active compound preparation at the stated application rates inside the spray cabinets using hallowcone nozzles. One day after treatment, the plants were inoculated with spore suspension containing 2.1×10^6 Phakopsora pachyrhizi inoculum. The inoculated plants were then kept in greenhouse chamber at 25° C. temperature & 90% relative humidity for disease expression.
A visual assessment of compound's performance was carried out by rating the disease severity (0-100% scale) on treated plants on 3, 7, 10 & 15 days after application. Efficacy (% control) of the compounds was calculated by comparing the disease rating in the treatment with the one of the untreated control. The sprayed plants were also assessed for compound's plant compatibility by recording symptoms like necrosis, chlorosis & stunting.

| SMILES | pest or weed control at 500 ppm |
| --- | --- |
| Cc1ccc(S(C)(=O)=NC(=O)c2ccc(-c3noc(C(F)(F)F)n3)cc2)cc1 (stereo not shown) [Compound 30, N-(methyl(oxo)(p-tolyl)-λ^6-sulfaneylidene)-4-(5-(trifluoromethyl)-1,2,4-oxadiazol-3-yl)benzamide] | > 90% |
| CS(=O)(=NC(=O)c1ccc(-c2noc(C(F)(F)F)n2)cc1)c1ccc(F)cc1 (stereo not shown) [Compound 6, N-((4-fluorophenyl)(methyl)(oxo)-λ^6-sulfanylidene)-4-(5-(trifluoromethyl)-1,2,4-oxadiazol-3-yl)benzamide] | > 90% |
| Cc1ccccc1CS(C)(=O)=NC(=O)c1ccc(-c2noc(C(F)(F)F)n2)cc1 (stereo not shown) [Compound 40, N-(methyl(2-methylbenzyl)(oxo)-λ^6-sulfaneylidene)-4-(5-(trifluoromethyl)-1,2,4-oxadiazol-3-yl)benzamide] | > 90% |
| CS(=O)(=NC(=O)c1ccc(-c2noc(C(F)(F)F)n2)cc1)c1ccc(F)c(F)c1 (stereo not shown) [Compound 57, N-((3,4-difluorophenyl)(methyl)(oxo)-λ^6-sulfaneylidene)-4-(5-(trifluoromethyl)-1,2,4-oxadiazol-3-yl)benzamide] | > 90% |
| CS(=O)(=NCc1ccc(-c2noc(C(F)(F)F)n2)cc1)c1ccc(Cl)cc1 (stereo not shown) [Compound 28, (4-chlorophenyl)(methyl)((4-(5-(trifluoromethyl)-1,2,4-oxadiazol-3-yl)benzyl)imino)-λ^6-sulfanone] | > 90% |
| CS(=O)(=Nc1ccc(-c2noc(C(F)(F)F)n2)cc1)c1ccc(OC(F)(F)F)cc1 (stereo not shown) [Compound 21, methyl(4-(trifluoromethoxy)phenyl)((4-(5-(trifluoromethyl)-1,2,4-oxadiazol-3-yl)phenyl)imino)-λ^6-sulfanone] | > 90% |
| CS(=O)(Cc1c(F)cccc1F)=Nc1ccc(-c2noc(C(F)(F)F)n2)cc1 (stereo not shown) [Compound 85, (2,6-difluorobenzyl)(methyl)((4-(5-(trifluoromethyl)-1,2,4-oxadiazol-3-yl)phenyl)imino)-λ^6-sulfanone] | > 90% |
| CS(=O)(=Nc1ccc(-c2noc(C(F)(F)F)n2)nc1)c1ccccn1 (stereo not shown) [Compound 110, methyl(pyridin-2-yl)((6-(5-(trifluoromethyl)-1,2,4-oxadiazol-3-yl)pyridin-3-yl)imino)-λ^6-sulfanone] | > 90% |
| CS(=O)(=Nc1ccc(-c2noc(C(F)(F)F)n2)cc1)c1ccccc1F (stereo not shown) [Compound 12, (2-fluorophenyl)(methyl)((4-(5-(trifluoromethyl)-1,2,4-oxadiazol-3-yl)phenyl)imino)-λ^6-sulfanone] | > 90% |
| CS(=O)(=NC(=O)c1ccc(-c2noc(C(F)(F)F)n2)cc1)c1ccc(C(F)(F)F)cc1 (stereo not shown) [Compound 7, N-(methyl(oxo)(4-(trifluoromethyl)phenyl)-λ^6-sulfanylidene)-4-(5-(trifluoromethyl)-1,2,4-oxadiazol-3-yl)benzamide] | > 90% |
| O=C(N=S1(=O)CCOCC1)c1ccc(-c2noc(C(F)(F)F)n2)cc1 [Compound 58, N-(4-oxido-1,4λ^6-oxathian-4-ylidene)-4-(5-(trifluoromethyl)-1,2,4-oxadiazol-3-yl)benzamide] | > 90% |
| CS(=O)(Cc1ccccc1F)=NC(=O)c1ccc(-c2noc(C(F)(F)F)n2)cc1 (stereo not shown) [Compound 38, N-((2-fluorobenzyl)(methyl)(oxo)-λ^6-sulfaneylidene)-4-(5-(trifluoromethyl)-1,2,4-oxadiazol-3-yl)benzamide] | > 90% |
| CS(=O)(=NC(=O)c1ccc(-c2noc(C(F)(F)F)n2)cc1)c1ccc(Cl)cc1 (stereo not shown) [Compound 1, N-((4-chlorophenyl)(methyl)(oxo)-λ^6-sulfanylidene)-4-(5-(trifluoromethyl)-1,2,4-oxadiazol-3-yl)benzamide] | > 90% |
| CS(=O)(Cc1ccc(C(F)(F)F)cc1)=NC(=O)c1ccc(-c2noc(C(F)(F)F)n2)cc1 (stereo not shown) [Compound 50, N-(methyl(oxo)(4-(trifluoromethyl)benzyl)-λ^6-sulfaneylidene)-4-(5-(trifluoromethyl)-1,2,4-oxadiazol-3-yl)benzamide] | > 90% |
| CS(=O)(Cc1c(Cl)cccc1Cl)=Nc1ccc(-c2noc(C(F)(F)F)n2)cc1 (stereo not shown) [Compound 91, (2,6-dichlorobenzyl)(methyl)((4-(5-(trifluoromethyl)-1,2,4-oxadiazol-3-yl)phenyl)imino)-λ^6-sulfanone] | > 90% |
| CS(=O)(=NC(=O)c1ccc(-c2noc(C(F)(F)F)n2)cc1)c1cccc(F)c1 (stereo not shown) [Compound 5, N-((3-fluorophenyl)(methyl)(oxo)-λ^6-sulfanylidene)-4-(5-(trifluoromethyl)-1,2,4-oxadiazol-3-yl)benzamide] | > 90% |
| Cc1csc(S(C)(=O)=NC(=O)c2ccc(-c3noc(C(F)(F)F)n3)cc2)n1 (stereo not shown) [Compound 53, N-(methyl(4-methylthiazol-2-yl)(oxo)-λ^6-sulfaneylidene)-4-(5-(trifluoromethyl)-1,2,4-oxadiazol-3-yl)benzamide] | > 90% |
| CS(=O)(Cc1ccc(C#N)cc1)=NC(=O)c1ccc(-c2noc(C(F)(F)F)n2)cc1 (stereo not shown) [Compound 31, N-((4-cyanobenzyl)(methyl)(oxo)-λ^6-sulfaneylidene)-4-(5-(trifluoromethyl)-1,2,4-oxadiazol-3-yl)benzamide] | > 90% |
| CS(=O)(=NC(=O)c1ccc(-c2noc(C(F)(F)F)n2)cc1)c1ccc(C#N)cc1 (stereo not shown) [Compound 42, N-((4-cyanophenyl)(methyl)(oxo)-λ^6-sulfaneylidene)-4-(5-(trifluoromethyl)-1,2,4-oxadiazol-3-yl)benzamide] | > 90% |
| CS(=O)(Cc1c(Cl)cccc1Cl)=NC(=O)c1ccc(-c2noc(C(F)(F)F)n2)cc1 (stereo not shown) [Compound 51, N-((2,6-dichlorobenzyl)(methyl)(oxo)-λ^6-sulfaneylidene)-4-(5-(trifluoromethyl)-1,2,4-oxadiazol-3-yl)benzamide] | > 90% |
| CS(=O)(Cc1ccc(Br)cc1)=Nc1ccc(-c2noc(C(F)(F)F)n2)cc1 (stereo not shown) [Compound 92, (4-bromobenzyl)(methyl)((4-(5-(trifluoromethyl)-1,2,4-oxadiazol-3-yl)phenyl)imino)-λ^6-sulfanone] | > 90% |
| COc1ccc(S(C)(=O)=NC(=O)c2ccc(-c3noc(C(F)(F)F)n3)cc2)cc1 (stereo not shown) [Compound 10, N-((4-methoxyphenyl)(methyl)(oxo)-λ^6-sulfanylidene)-4-(5-(trifluoromethyl)-1,2,4-oxadiazol-3-yl)benzamide] | > 90% |
| CS(=O)(=NCc1ccc(-c2noc(C(F)(F)F)n2)cc1)c1ccc(C(F)(F)F)cc1 (stereo not shown) [Compound 25, methyl((4-(5-(trifluoromethyl)-1,2,4-oxadiazol-3-yl)benzyl)imino)(4-(trifluoromethyl)phenyl)-λ^6-sulfanone] | > 90% |
| CS(=O)(Cc1ccc(F)cc1)=Nc1ccc(-c2noc(C(F)(F)F)n2)cc1 (stereo not shown) [Compound 89, (4-fluorobenzyl)(methyl)((4-(5-(trifluoromethyl)-1,2,4-oxadiazol-3-yl)phenyl)imino)-λ^6-sulfanone] | > 90% |
| CS(=O)(=NC(=O)c1ccc(-c2noc(C(F)(F)F)n2)cc1)c1ccccn1 (stereo not shown) [Compound 2, N-(methyl(oxo)(pyridin-2-yl)-λ^6-sulfanylidene)-4-(5-(trifluoromethyl)-1,2,4-oxadiazol-3-yl)benzamide] | > 90% |
